Where two headings read alike, the source gives them in different places.
Key:
[1] = log P by HPLC on reversed-phase C18 columns (OECD Guideline 117); assay type: physicochemical; details: for chromatographic logP: reversed-phase C18 HPLC column
[2] = test system: green peach aphid (Myzus persicae); assay: Myzus persicae spray test on Chinese cabbage leaf discs; assay type: in vivo; details: application rate 500 g/ha, after 6 days
Excerpt: Discs of Chinese cabbage leaves (Brassica pekinensis) infested by all stages of the green peach aphid (Myzus persicae) are sprayed with an active ingredient formulation of the desired concentration.

[3] = HPLC RP C18, acidic range pH 2.7, 0.1% aqueous formic acid/acetonitrile
[4] = pH 2.7, HPLC RP C18, acidic range pH 2.7, 0.1% aqueous formic acid/acetonitrile, read-out: logP[a]
[5] = pH 7.8, HPLC RP C18, neutral range pH 7.8, 0.001 molar aqueous ammonium hydrogencarbonate/acetonitrile, read-out: logP[b]
[6] = HPLC RP C18, neutral range pH 7.8, 0.001 molar aqueous ammonium hydrogencarbonate/acetonitrile

| SMILES | chromatographic logP [1, 4] | chromatographic logP [1, 5] | logP[a] [1, 3] | efficacy (aphids killed) [2] [%] | further results |
| --- | --- | --- | --- | --- | --- |
| O=c1c2cn(-c3ccccc3)nc2ncn1Cc1ncccn1 [compound 11] | – | – | 0.63 | 100 | – |
| O=c1c2cnn(-c3cccnc3)c2ncn1CC(F)(F)F [compound 3] | – | – | – | 100 | logP[a] ([1]; pH 2.7): 1.48 |
| CNC(=O)c1cnn(-c2cncnc2)c1N [IIb-2-1, 5-Amino-N-methyl-1-(pyrimidin-5-yl)-1H-pyrazole-4-carboxamide] | 0.18 | -0.01 | – | – | – |
| CC(C)(C)Cn1cnc2nn(-c3cccnc3)cc2c1=O [compound 34] | – | – | 1.70 | 100 | logP[b] [1, 6]: 1.71 |
| CCn1cnc2nn(-c3cccnc3)cc2c1=O [compound 16, 5-Ethyl-2-(pyridin-3-yl)-2,5-dihydro-4H-pyrazolo[3,4-d]pyrimidin-4-one] | 0.7 | 0.84 | – | 100 | – |
| CCn1c(C)nc2nn(-c3cccnc3)cc2c1=O [compound 29, 5-Ethyl-6-methyl-2-(pyridin-3-yl)-2,5-dihydro-4H-pyrazolo[3,4-d]pyrimidin-4-one] | 0.93 | 1.03 | – | 90 | – |
| CN(C)C(=O)Cn1cnc2nn(-c3cccnc3)cc2c1=O [compound 22] | – | – | 0.47 | 90 | logP[b] [1, 6]: 0.51 |
| Cn1cnc2nn(-c3cccnc3)cc2c1=O [compound 18] | – | – | 0.45 | 100 | logP[b] [1, 6]: 0.52 |
| Cn1cnc2c(cnn2-c2cccnc2)c1=O [compound 7] | – | – | – | – | logP[a] ([1]; pH 2.7): 0.58; logP[b] ([1]; pH 7.8): 0.82 |
| CCOC(=O)c1cnn(-c2ccnnc2)c1N [IIIa-3, Ethyl 5-amino-1-pyridazin-4-yl-pyrazole-4-carboxylate] | 1.12 | 1.12 | – | – | – |
| O=c1c2cn(-c3cccnc3)nc2ncn1CC1CC1 [compound 33] | – | – | 1.23 | 100 | logP[b] [1, 6]: 1.27 |
| CCn1cnc2nn(-c3cccnc3)cc2c1=O [compound 9] | – | – | 0.80 | – | – |
| CC(C)n1cnc2nn(-c3cncnc3)cc2c1=O [compound 37] | – | – | – | 100 | logP[a] ([1]; pH 2.7): 0.93; logP[b] ([1]; pH 7.8): 0.92 |
| Cc1nc2nn(-c3cccnc3)cc2c(=O)n1C(C)C [compound 28] | – | – | 1.28 | 90 | logP[b] [1, 6]: 1.35 |
| O=c1c2cn(-c3cccnc3)nc2ncn1C1CC1 [compound 23] | – | – | 0.79 | 100 | logP[b] [1, 6]: 0.83 |
| O=c1c2cnn(-c3cccnc3)c2ncn1Cc1ncccn1 [compound 5] | – | – | – | 90 | logP[a] ([1]; pH 2.7): 0.80; logP[b] ([1]; pH 7.8): 0.91 |

| SMILES | chromatographic logP [1, 4] | chromatographic logP [1, 5] | logP[a] [1, 3] | efficacy (aphids killed) [2] [%] | further results |
| --- | --- | --- | --- | --- | --- |
| CCOC(=O)c1cn(-c2ccnnc2)nc1N [IIIb-3, ethyl 3-amino-1-pyridazin-4-yl-pyrazole-4-carboxylate] | 0.9 | 0.94 | – | – | – |
| O=c1c2cn(-c3cccnc3)nc2ncn1CC1CCCO1 (centres unmarked) [compound 17] | – | – | 1.07 | 100 | logP[b] [1, 6]: 1.12 |
| CCOC(=O)c1cnn(-c2cncnc2)c1N [IIIa-2, Ethyl 5-amino-1-(pyrimidin-5-yl)-1H-pyrazole-4-carboxylate] | 1.16 | 1.12 | – | – | – |
| CC(F)(F)Cn1cnc2nn(-c3cccnc3)cc2c1=O [compound 24] | – | – | 1.19 | 100 | logP[b] [1, 6]: 1.21 |
| Cc1ccc(-n2cnc3nn(-c4cccnc4)cc3c2=O)cc1 [compound 39] | – | – | 1.73 | 100 | logP[b] [1, 6]: 1.73 |
| O=c1c2cnn(-c3cccnc3)c2ncn1-c1ccccc1 [compound 2] | – | – | 1.57 | 90 | – |
| CCOC(=O)Cn1cnc2nn(-c3cccnc3)cc2c1=O [compound 19] | – | – | 0.98 | 100 | logP[b] [1, 6]: 1.09 |
| O=c1c2cn(-c3cccnc3)nc2ncn1CC(F)(F)F [compound 12] | – | – | 1.27 | 100 | – |
| CCn1c(C(F)(F)F)nc2nn(-c3cccnc3)cc2c1=O [compound 32, 5-Ethyl-2-(pyridin-3-yl)-6-(trifluoromethyl)-2,5-dihydro-4H-pyrazolo[3,4-d]pyrimidin-4-one] | 2.07 | 2.06 | – | – | – |
| O=c1c2cnn(-c3cccnc3)c2ncn1-c1ccc(Cl)cc1 [compound 4] | – | – | 2.04 | 90 | – |
| CC(c1ccccn1)n1cnc2nn(-c3cccnc3)cc2c1=O (centres unmarked) [compound 21] | – | – | 1.13 | 90 | logP[b] [1, 6]: 1.32 |
| CCOC(=O)c1cn(-c2cncnc2)nc1N [IIIb-2, ethyl 3-amino-1-(pyrimidin-5-yl)-1H-pyrazole-4-carboxylate] | 1.12 | 1.08 | – | – | – |
| CC(C)n1cnc2c(cnn2-c2cccnc2)c1=O [compound 1] | – | – | – | – | logP[a] ([1]; pH 2.7): 1.31 |
| CC(C)NC(=O)c1cn(-c2ccnnc2)nc1N [IIb-3-1, 3-Amino-N-isopropyl-1-pyridazin-4-yl-pyrazole-4-carboxamide] | 0.74 | 0.74 | – | – | – |
| CCOC(=O)c1cnn(-c2cccnc2)c1N [IIIa-1, Ethyl 5-amino-1-(pyridin-3-yl)-1H-pyrazole-4-carboxylate] | – | – | 1.10 | – | – |

The next lines start with results.

| chromatographic logP [1, 4] | chromatographic logP [1, 5] | SMILES | logP[a] [1, 3] | efficacy (aphids killed) [2] [%] | further results |
| --- | --- | --- | --- | --- | --- |
| 0.86 | 2.22 | C(=NNc1cccnc1)c1ccccc1 [VII-1, Benzaldehyde pyridin-3-yl hydrazone] | – | – | – |
| 1.18 | 1.27 | CCOC(=O)c1cnn(-c2cccnc2)c1N [(IIIa-1). HCOOH, ethyl 5-amino-1-(pyridin-3-yl)-1H-pyrazole-4-carboxylate] | – | – | – |
| 1.12 | 1.32 | CCOC(=O)c1cn(-c2cccnc2)nc1N [IIIb-1, Ethyl 3-amino-1-(pyridin-3-yl)-1H-pyrazole-4-carboxylate] | – | – | – |
| 0.5 | 0.56 | CCNC(=O)c1cnn(-c2cccnc2)c1N [IIa-1-1, 5-Amino-N-ethyl-1-(pyridin-3-yl)-1H-pyrazole-4-carboxamide] | – | – | – |
| 0.55 | 0.55 | Cn1cnc2c(cnn2-c2cncnc2)c1=O [compound 8, 5-Methyl-1-(pyrimidin-5-yl)-1,5-dihydro-4H-pyrazolo[3,4-d]pyrimidin-4-one] | – | – | – |
| 0.82 | 1.05 | CC(C)NC(=O)c1cn(-c2cccnc2)nc1N [IIb-1-2, 3-Amino-N-isopropyl-1-(pyridin-3-yl)-1H-pyrazole-4-carboxamide] | – | – | – |
| 0.98 | 1.15 | CCn1cnc2c(cnn2-c2cccnc2)c1=O [compound 6, 5-Ethyl-1-(pyridin-3-yl)-1,5-dihydro-4H-pyrazolo[3,4-d]pyrimidin-4-one] | – | – | – |
| 0.45 | 0.77 | CCNC(=O)c1cn(-c2cccnc2)nc1N [IIb-1-1, 3-Amino-N-ethyl-1-(pyridin-3-yl)-1H-pyrazole-4-carboxamide] | – | – | – |
| 2.54 | 2.48 | CCOC(=O)C(C#N)=CN(N=Cc1ccccc1)c1cccnc1 [VIII-1, Ethyl 3-[2-benzylidene-1-(pyridin-3-yl)hydrazino]-2-cyanoacrylate] | – | – | – |

— patent publication US9688681B2, “Heterocyclic compounds as pest control agents” (BAYER CROPSCIENCE AKTIENGESELLSCHAFT, priority 2013, dated 2017)
